Measurements published in publication PMC9569995, “Study of Biological Activities and ADMET-Related Properties of Salicylanilide-Based Peptidomimetics” (International Journal of Molecular Sciences, 2022).
≈ marks a conversion by molar mass, not a printed value. Where “and” joins values, the source holds several entries; their conditions need not be identical. Equal entries are not always repeated. Where two headings read alike, the source gives them in different places.

How the values were obtained:
[1] = Lipophilicity determination by HPLC; type: physicochemical; conditions: for log D6.5: HPLC C18, MeOH 72%/acetate-buffered saline pH 6.5 28%; for log D7.4: HPLC C18, MeOH 72%/acetate-buffered saline pH 7.4 28%; for log k: logarithm of capacity factor, HPLC C18, MeOH 72%/H2O 28%
Excerpt: . A chromatographic column Symmetry® C18 5 μm, 4.6 × 250 mm, Part No. W21751W016 (Waters Corp, Milford, MA, USA) was used. The HPLC separation process was monitored by ChemStation for LC 3D systems (Agilent Technologies). Isocratic elution by a mixture of MeOH (HPLC grade, 72%) and H2O-HPLC Mili-Q grade (28%) as a mobile phase was used for the determination of capacity factor k. Isocratic elution by a mixture of MeOH (HPLC grade, 72%) and acetate-buffered saline (pH 7.4 and pH 6.5) (28%) as a mobile phase was used for the determination of distribution coefficient expressed as D7.4 and D6.5. The total flow of the column was 1.0 mL/min, injection was 20 μL, column temperature was 40 °C, and sample temperature was 10 °C. The detection wavelength of 210 nm was chosen. A KI methanolic solution was used for the determination of the dead times (tD). Retention times (tR) were measured in minutes. The capacity factors k were calculated according to the formula k = (tR − tD)/tD, where tR is the retention time of the solute, and tD is the dead time obtained using an unretained analyte. The distribution coefficients DpH were calculated according to the formula DpH = (tR − tD)/tD. Each experiment was repeated three times.

M. smegmatis ATCC 700084 = experiment: In vitro antimycobacterial evaluation, MIC (broth dilution micro-method); type: cell-based, Mycobacterium smegmatis
Experimental: For M. smegmatis, the broth dilution micro-method in Middlebrook 7H9 medium (Difco) supplemented with ADC Enrichment (Difco) was used. […] Bacterial inocula were prepared by transferring colonies from culture to sterile water. The cell density was adjusted to 0.5 McFarland units using a densitometer (Densi-La-Meter, LIAP, Riga, Latvia). The final inoculum was made by 1:1000 dilution of the suspension with sterile water. Drug-free controls, sterility controls, and controls consisting of medium and DMSO alone were included. The determination of results was performed visually after three days of static incubation in the darkness at 37 °C in an aerobic atmosphere.

[2] = system: methicillin-resistant S. aureus SA 630; experiment: In vitro antibacterial evaluation, MIC by microtitration broth method; conditions: Staphylococcus aureus, 24 h
[3] = system: human monocytic leukemia cell line THP-1; experiment: In vitro cell viability analysis (CCK-8); type: cell-based; conditions: ± SD, n = 6, medium with 10% FBS, 24 h
Experimental: Human monocytic leukemia THP-1 cells obtained from the European Collection of Cell Cultures (ECACC, Salisbury, UK) were used for in vitro antiproliferative assays. They were routinely cultured in Roswell Park Memorial Institute RPMI 1640 medium supplemented with 10% fetal bovine serum (FBS), 2% L-glutamine, 1% penicillin, and streptomycin (all from Sigma-Aldrich) at 37 °C with 5% CO2. The cells were incubated in a complete medium (i.e., containing FBS) with test compounds at 37 °C with 5% CO2 for 24 h, similarly as we described previously. The effect of the test compounds dissolved in DMSO on cell viability was determined using a Cell Counting Kit-8 (CCK-8; Sigma) according to the manufacturer’s instructions.

[4] = system: methicillin-resistant S. aureus 63718; experiment: In vitro antibacterial evaluation, MIC by microtitration broth method; conditions: Staphylococcus aureus, 24 h
[5] = system: Enterococcus faecalis ATCC 29212; experiment: as above; conditions: ATCC29212, 24 h
[6] = system: vancomycin-resistant E. faecalis VRE 725B; experiment: as above; conditions: Enterococcus faecalis, 24 h
[7] = system: vancomycin-resistant E. faecalis VRE 368; experiment: as above; conditions: Enterococcus faecalis, 24 h
[8] = system: Staphylococcus aureus ATCC 29213; experiment: Determination of minimum bactericidal concentrations (agar aliquot subculture); conditions: ATCC29213
[9] = system: methicillin-resistant S. aureus 63718; experiment: as above; conditions: Staphylococcus aureus
[10] = system: methicillin-resistant S. aureus SA 3202; experiment: as above; conditions: Staphylococcus aureus
S. aureus ATCC 29123 = experiment: Crystal violet uptake (membrane permeability); conditions: 4× MIC, 1 h; compared to growth control and 1% Tween 20
[11] = system: vancomycin-resistant E. faecalis VRE 342B; experiment: In vitro antibacterial evaluation, MIC by microtitration broth method; conditions: Enterococcus faecalis, 24 h
[12] = system: Staphylococcus aureus ATCC 29213; experiment: as above; conditions: ATCC29213, 24 h
[13] = system: Mycobacterium tuberculosis H37Ra/ATCC 25177; experiment: In vitro antimycobacterial evaluation, MIC (alamarBlue); conditions: MT; 14 days, 37 °C
S. aureus ATCC 29213 = experiment: MTT assay of bacterial viability (respiration); conditions: for Conc.: lowest multiple of MBC with at least 70% inhibition of S. aureus viability / Conc.: lowest multiple of MIC with at least 70% inhibition of S. aureus viability: MTT, 24 h
[14] = system: methicillin-resistant S. aureus SA 3202; experiment: In vitro antibacterial evaluation, MIC by microtitration broth method; conditions: Staphylococcus aureus, 24 h
[15] = system: methicillin-resistant S. aureus SA 630; experiment: Determination of minimum bactericidal concentrations (agar aliquot subculture); conditions: Staphylococcus aureus
[16] = system: Enterococcus faecalis ATCC 29212; experiment: as above; conditions: ATCC29212
[17] = system: vancomycin-resistant E. faecalis VRE 368; experiment: as above; conditions: Enterococcus faecalis
[18] = system: vancomycin-resistant E. faecalis VRE 725B; experiment: as above; conditions: Enterococcus faecalis
[19] = system: vancomycin-resistant E. faecalis VRE 342B; experiment: as above; conditions: Enterococcus faecalis

Compound | log D6.5 [1] | log D7.4 [1] | log k [1] | MIC [2] | IC50 [3] | MIC [4] | MIC [5] | MIC [6] | MIC [7] | MBC [8] | MBC [9] | MBC [10] | effect on plasma membrane permeability (crystal violet uptake) (S. aureus ATCC 29123) | MIC [11] | MIC [12] | MIC [13] | Conc.: lowest multiple of MBC with at least 70% inhibition of S. aureus viability (S. aureus ATCC 29213) | Conc.: lowest multiple of MIC with at least 70% inhibition of S. aureus viability (S. aureus ATCC 29213) | MIC [14] | MBC [15] | further results
O=C(N[C@@H](Cc1ccccc1)C(=O)Nc1ccc(C(F)(F)F)cc1)c1cc(Cl)ccc1O [3h] | 1.148 | 1.043 | 1.192 | 1.08 µM (≈ 0.5 µg/mL) | 3.3 ± 1 µM | 0.27 µM (≈ 0.125 µg/mL) | 277 µM (≈ 128 µg/mL) | 277 µM (≈ 128 µg/mL) | 277 µM (≈ 128 µg/mL) | 2.16 µM (≈ 1 µg/mL) | 0.27 µM (≈ 0.125 µg/mL) | 2.16 µM (≈ 1 µg/mL) | did not affect plasma membrane permeability | 277 µM (≈ 128 µg/mL) | 1.08 µM (≈ 0.5 µg/mL) | n.a. n.d. (n.a. = no activity (MIC > 256 µg/mL)) | 2× MIC (2× MBC) | 2× MIC (2× MBC) | 2.16 µM (≈ 1 µg/mL) | 2.16 µM (≈ 1 µg/mL) | MIC (M. smegmatis ATCC 700084; Mycolicibacterium smegmatis, ATCC700084, 72 h, MS, three days, 37 °C, read-out: MIC): > 256 µg/mL; S. aureus Viability Inhibition (S. aureus ATCC 29213; at 2× MIC (2× MBC)): 94%
CSCC[C@H](NC(=O)c1cc(Cl)ccc1O)C(=O)Nc1ccc(C(F)(F)F)cc1 [3e, 5-Chloro-2-hydroxy-N-[(2S)-4-(methylsulfanyl)-1-oxo-1-{[4-(trifluoromethyl)phenyl]amino}butan-2-yl]benzamide] | 1.021 | 0.963 | 1.076 | 4.48 µM (≈ 2 µg/mL) | > 10 µM | 8.95 µM (≈ 4 µg/mL) | 17.9 µM (≈ 8 µg/mL) | 35.8 µM (≈ 16 µg/mL) | 17.9 µM (≈ 8 µg/mL) | 2.24 µM (≈ 1 µg/mL) | 8.95 µM (≈ 4 µg/mL) | 8.95 µM (≈ 4 µg/mL) | did not affect plasma membrane permeability | 35.8 µM (≈ 16 µg/mL) | 2.24 µM (≈ 1 µg/mL) | 35.8 µM and 35.8 n.d. µM | 2× MIC (2× MBC) | 2× MIC (2× MBC) | 8.95 µM (≈ 4 µg/mL) | 8.95 µM (≈ 4 µg/mL) | MIC (M. smegmatis ATCC 700084; MS, three days, 37 °C): 35.8 n.d. µM; MIC (M. smegmatis ATCC 700084; Mycolicibacterium smegmatis, ATCC700084, 72 h): 35.8 µM; MBC [16]: 35.8 µM (≈ 16 µg/mL); MBC [17]: 35.8 µM (≈ 16 µg/mL); MBC [18]: 35.8 µM (≈ 16 µg/mL); S. aureus Viability Inhibition (S. aureus ATCC 29213; at 2× MIC (2× MBC)): 94% and 94.6%; MBC [19]: 35.8 µM (≈ 16 µg/mL)
CC1(C)S[C@@H]2[C@H](NC(=O)[C@H](N)c3ccccc3)C(=O)N2[C@H]1C(=O)O [APC, ampicillin, reference compound] | – | – | – | 45.8 µM (≈ 16 µg/mL) | – | 45.8 µM (≈ 16 µg/mL) | 2.81 µM (≈ 0.982 µg/mL) | 11.5 µM (≈ 4.02 µg/mL) | 11.5 µM (≈ 4.02 µg/mL) | > 5.72 µM | > 45.8 µM | > 45.8 µM | – | 11.5 µM (≈ 4.02 µg/mL) | 5.72 µM (≈ 2 µg/mL) | – | 8× MIC (>8× MBC) | 8× MIC (>8× MBC) | 45.8 µM (≈ 16 µg/mL) | > 45.8 µM | MBC [16]: 2.81 µM (≈ 0.982 µg/mL); MBC [17]: 11.5 µM (≈ 4.02 µg/mL); MBC [18]: 11.5 µM (≈ 4.02 µg/mL); S. aureus Viability Inhibition (S. aureus ATCC 29213; at 8× MIC (>8× MBC)): 90.0%; MBC [19]: 11.5 µM (≈ 4.02 µg/mL)
